Assay results: ChEMBL document CHEMBL5143707, “Benzodiazepine Derivatives as Potent Vasopressin V2 Receptor Antagonists for the Treatment of Autosomal Dominant Kidney Disease” (J Med Chem, 2022)

Columns and labels:
in vivo [1] = conditions: C57BL/6, mouse, kidney, sc, 5 mg/kg
in vivo [2] = conditions: C57BL/6, mouse, kidney, sc, 5 mg/kg; remark: listed apart in the source

Cc1ccccc1C(=O)Nc1ccc(C(=O)N2CCCC(O)c3cc(Cl)ccc32)c(C)c1 (configuration not stated) [TOLVAPTAN]
concentration at 0.5 h (in vivo [1]): 6100 ng/g
concentration at 1 h (in vivo [2]): 3900 ng/g
